Results taken from paper PMC6321230, “Metabolic Stability and Metabolite Characterization of Capilliposide B and Capilliposide C by LC–QTRAP–MS/MS” (Pharmaceutics, 2018).

Experiments:
[1] = design: method as in PMID 27859436; settings: mouse, after intravenous dosing of LC-B; cited from earlier work
HepG2 cells = test system: HepG2 cells; design: method as in PMID 26678180; settings: cited from earlier work
DU145 cells = test system: DU145 cells; design: method as in PMID 16595968, PMID 24554216; settings: cited from earlier work
[2] = Metabolic stability in mouse liver microsomes; settings: for in vitro t1/2 in mouse liver microsomes: MLM 0.5 mg/mL, NADPH, 37 °C, substrate 1.0 μM (midazolam 0.5 μM)
[3] = design: method as in PMID 27521984; settings: intravenous administration; cited from earlier work
[4] = design: method as in PMID 24313264; settings: oral administration; cited from earlier work
[5] = mouse, microsomes
ovarian carcinoma A-2780 = test system: ovarian carcinoma A-2780; design: method as in PMID 16595968, PMID 24554216; settings: cited from earlier work
prostate cancer PC3 = test system: prostate cancer PC3; design: method as in PMID 16595968, PMID 24554216; settings: cited from earlier work
[6] = design: method as in PMID 26678180; settings: cited from earlier work
[7] = test system: esophageal squamous carcinoma cells; design: method as in PMID 28463955; settings: cotreatment of LC-C and oxaliplatin; cited from earlier work
[8] = Metabolic stability in human liver microsomes; settings: pH 7.4
[9] = Metabolic stability in rat liver microsomes; settings: pH 7.4

Structure (SMILES)	main site of tissue distribution [1]	cytotoxicity against HepG2 cells (HepG2 cells)	cytotoxicity against DU145 (DU145 cells)	in vitro t1/2 in mouse liver microsomes [2] [min]	recovery in rat excreta [3]	bioavailability [4]	exposure in tissues [4]	degradation in MLM regardless of the presence of NADPH [5]	degradation in MLM with esterase inhibitor dichlorvos [5]	cytotoxicity against A-2780 (ovarian carcinoma A-2780)	cytotoxicity against PC3 (prostate cancer PC3)	fraction metabolized in intestinal microflora [6] [%]	chemosensitizing effect of cotreatment with oxaliplatin [7]	half-life at 0.5 μM [8] [min]	half-life at 0.5 μM [9] [min]	half-life at 0.5 μM ([2]; mouse, microsomes, pH 7.4) [min]
CC1(C)C[C@@H]2[C@@]3([C@H](O)C[C@]4(C)[C@@]2(CC[C@@H]2[C@@]5(C)CC[C@H](O[C@@H]6OC[C@H](O[C@@H]7O[C@H](CO)[C@@H](O)[C@H](O)[C@H]7O[C@@H]7OC[C@@H](O)[C@H](O)[C@H]7O)[C@H](O)[C@H]6O[C@@H]6O[C@H](CO)[C@@H](O)[C@H](O)[C@H]6O)C(C)(C)[C@@H]5CC[C@]24C)O[C@@H]3O)[C@@H](O)C1 [LC-A, Capilliposide A]	mainly distributed in mouse liver	significant cytotoxicity														
CCCCCC(=O)O[C@H]1CC(C)(C)C[C@@H]2[C@@]13[C@H](O)C[C@]1(C)[C@@]2(CC[C@@H]2[C@@]4(C)CC[C@H](O[C@@H]5OC[C@H](O[C@@H]6O[C@H](CO)[C@@H](O)[C@H](O)[C@H]6O[C@@H]6OC[C@@H](O)[C@H](O)[C@H]6O)[C@H](O)[C@H]5O[C@@H]5O[C@H](CO)[C@@H](O)[C@H](O)[C@H]5O)C(C)(C)[C@@H]4CC[C@]21C)O[C@H]3O [LC-B, Capilliposide B]			significant cytotoxicities	27.7	less than 10%	poor bioavailability	low exposure in tissues	obvious degradation	remarkably inhibited	significant cytotoxicities	significant cytotoxicities					
CC1(C)C[C@H](O[C@@H]2O[C@H](CO)[C@@H](O)[C@H](O)[C@H]2O)[C@@]23[C@H](O)C[C@]4(C)[C@@](CC[C@@H]5[C@@]6(C)CC[C@H](O[C@@H]7OC[C@H](O[C@@H]8O[C@H](CO)[C@@H](O)[C@H](O)[C@H]8O[C@@H]8OC[C@@H](O)[C@H](O)[C@H]8O)[C@H](O)[C@H]7O[C@@H]7O[C@H](CO)[C@@H](O)[C@H](O)[C@H]7O)C(C)(C)[C@@H]6CC[C@]54C)(O[C@@H]2O)[C@@H]3C1 [LC-C, Capilliposide C]			significant cytotoxicities	63.0		poor bioavailability	low exposure in tissues	obvious degradation	remarkably inhibited	significant cytotoxicities	significant cytotoxicities	92.7	chemosenstizing effect			
Cc1ncc2n1-c1ccc(Cl)cc1C(c1ccccc1F)=NC2 [midazolam, Midazolam]														3.73	2.35	3.85
